Data from paper PMC3480206 (Future microbiology, 2012).
Converted amounts (≈) assume the structure as drawn. “Also recorded” adds a separate entry of the source. Where two headings read alike, the source gives them in different places.

Columns and labels:
CYP450 2D6 and 2C19 = settings: cited from earlier work
Mtb [1] = test: Rapid, high-dose model of TB infection; format: in vivo, mice; settings: murine model of acute infection
Haemophilus influenzae = test: MIC on Haemophilus influenzae; format: cell-based
[2] = tested on: Mycobacterium tuberculosis H37Rv; test: BACTEC MIC; format: cell-based; settings: ATCC27294|H37RV
[3] = tested on: Salmonella–Escherichia coli; test: Salmonella–Escherichia coli/microsome plate incorporation assay; format: cell-based; settings: In vitro mutagenicity studies
Mtb inside macrophages [4] = settings: cited from earlier work
[5] = IND-directed repeat-dose toxicology studies
[6] = In vivo pairwise drug-drug interaction studies with first-line drugs; settings: pairwise studies of SQ109 with INH, RIF or streptomycin in mice or rats
[7] = mice; cited from earlier work
CYP3A4 = settings: cited from earlier work
[8] = Phase Ib, multiple daily doses; format: in vivo, healthy humans
[9] = Phase Ia, escalating single dose; settings: for mean maximum concentration: fasting human subjects
[10] = tested on: Mycobacteria bovis, M. bovis BCG and Mycobacteria fortuitum; format: cell-based
Mtb [11] = test: Broth microdilution MIC against Mtb; format: cell-based, Mycobacterium tuberculosis
Aspergillus fumigatus = test: MIC on Aspergillus fumigatus; format: cell-based
[12] = Pulmonary safety testing, beagle dogs; format: in vivo; settings: single oral dosing at 75, 140 and 300 mg/m^2
[13] = tested on: Mycobacteria avium, marinum, chelonae and abscessus; test: MIC on other pathogenic Mycobacteria; format: cell-based
Mtb inside macrophages [14] = test: Intracellular killing in Mtb-infected macrophages; format: cell-based, Mycobacterium tuberculosis; settings: SQ109 with CFZ; Reddy V, Unpublished Data
[15] = Cardiovascular safety, beagle dogs
[16] = tested on: Mtb gene clusters GC82 and GC120, iniBAC operon; settings: cited from earlier work
Cryptococcus neoformans = test: MIC on Cryptococcus neoformans; format: cell-based
[17] = rats; cited from earlier work
Mtb [18] = settings: 10 mg/kg, cited from earlier work
[19] = Micronucleus assay in rats; settings: rat, in vivo
Mtb [20] = settings: cited from earlier work
Mtb [21] = settings: cited from earlier work; remark: listed apart in the source
[22] = Neurological safety assessment, rats; format: in vivo; settings: 90-day oral dosing at 30, 120 and 240 mg/m^2/day
[23] = tested on: Mycobacterium tuberculosis H37Rv; settings: mouse, in vivo; cited from earlier work
Candida spp. = test: MIC on Candida spp.; format: cell-based
[24] = human, in vivo
Clostridium difficile = test: MIC on Clostridium difficile; format: cell-based; settings: Clostridioides difficile
[25] = rat, in vivo; cited from earlier work
[26] = in vivo
Streptococcus pneumoniae = test: MIC on Streptococcus pneumoniae; format: cell-based
Neisseria gonorrhoeae = test: MIC and MBC on Neisseria gonorrhoeae; format: cell-based
[27] = tested on: Mycobacterium tuberculosis H37Rv; settings: cited from earlier work
[28] = tested on: Mycobacterium tuberculosis H37Rv; test: In vitro drug interaction, checkerboard titration by 96-well microdilution; format: cell-based
[29] = PK evaluation on coadministration with second-line drugs
Enterococci spp. = test: MIC on Enterococci spp.; format: cell-based
[30] = Phase Ic, multiple daily 300 mg doses
[31] = Neurological safety assessment, beagle dogs; format: in vivo; settings: 90-day oral dosing at 100, 300 and 1000 mg/m^2/day
[32] = tested on: Helicobacter pylori clinical isolates; test: MIC and time-kill on Helicobacter pylori; format: cell-based
[33] = 300 mg with high-fat, high-calorie meal
[34] = single oral dosing at 75, 140 and 300 mg/m^2

## CC(C)=CCC/C(C)=C/CNCCNC1C2CC3CC(C2)CC1C3 (stereo not drawn) [SQ109, N-geranyl-N′-(2-adamantyl)ethane-1,2-diamine]
CYP450 2D6 and 2C19
  human CYP450 enzymes producing the four major metabolites: CYP450 2D6 and 2C19
Mtb [1]
  efficacious dose for treatment of TB: 10 mg/kg/day
Haemophilus influenzae
  MIC: 1 to 32 µg/mL (≈ 3.03 to 96.8 µM)
[2]
  MIC: ≤ 0.2 µg/mL
[3]
  Salmonella–Escherichia coli/microsome plate incorporation assay: Negative
Mtb inside macrophages [4]; SQ109 with sutezolid
  time to kill intracellular Mtb in infected macrophage assay: improved synergistically
Mtb inside macrophages [4]; at its MIC
  reduction of intracellular Mtb: 99%
Mtb inside macrophages [4]
  killing of Mtb inside macrophages relative to INH and EMB: equivalent to INH and superior to EMB
[5]; 40 mg/kg/day, three animal species, except emesis in dogs
  toxicities and adverse events: no cardiovascular, hepatic, hematologic, neurological or ocular toxicities
[5]; dog, rat, nonhuman primate, in vivo
  NOAEL: 30 to 40 mg/kg/day
[5]; in vivo
  phospholipidosis: did cause phospholipidosis
[6]
  in vivo drug–drug interactions or PK changes: no in vivo adverse drug–drug interactions or PK changes
[7]
  concentration in lung and spleen compared with plasma: at least 45 fold
CYP3A4
  activation of CYP450 3A4: not activated
  metabolism by CYP450 3A4: nor is it metabolized
Mouse lymphoma
  Mouse lymphoma mutation assay: Negative
[8]; 75 mg daily for 14 days or 150 mg daily for 5 days then days 9 and 14
  tolerability: well tolerated
[8]; Phase Ib
  serious adverse events: no SAEs
[9]; [33]
  food effect on half-life: increased
  food effect on maximum serum concentration: decreased
[9]; 10-mg oral dose
  mean maximum concentration: 0.729 ng/mL
[9]; 300-mg oral dose
  mean maximum concentration: 20.2 ng/mL
[9]; Phase Ia, single oral doses 5-300 mg
  serious adverse events: no serious AEs
[9]; human, serum, oral, 300 mg
  half-life: 61.1 h
[10]
  activity against other Mycobacteria: active
Mtb [11]; Mycobacterium tuberculosis
  MIC: 0.78 µg/mL (≈ 2.36 µM)
Mtb [11]; overall range on Mtb
  MIC range: 0.2 to 0.78 µg/mL
Aspergillus fumigatus
  MIC: 8 µg/mL (≈ 24.2 µM)
[12]
  Minute volume: No change
  Respiratory rate: No change
  Tidal volume: No change
[13]
  MIC: 4 to 16 µg/mL (≈ 12.1 to 48.4 µM)
Mtb inside macrophages [14]
  interaction in macrophage intracellular killing assay: synergy
[15]; at 75 and 140 mg/m^2
  Blood pressure: No change
[15]; [34]
  Body weights: No change
  Clinical observations: No deaths
  Clinical pathology: hematology or clinical chemistry: No change
  ECG waveforms (rhythms and morphology): No change
  Heart rate/ECG data: No change
[16]
  Activity on Mtb gene clusters GC82 and GC120: Downregulates
  transcription of the iniBAC operon: induces
Cryptococcus neoformans
  MIC: 0.25 to 4 µg/mL (≈ 0.756 to 12.1 µM)
[17]
  tissue distribution: highest concentrations of SQ109 in liver
Mtb [18]; versus untreated infected mice
  weight loss of infected mice: significantly reduced weight loss
Mtb [18]; mice
  efficacy in screening and chronic model of TB: efficacious
[19]
  Micronucleus assay in rats: Negative
Mtb [20]
  incorporation into trehalose monomyclate (TMM): increased
Mtb [20]; trehalose dimycolate and arabinogalactan-bound mycolates
  incorporation of mycolic acids into the cell wall: decreased
Mtb [21]
  Effect on acid-fastness of Mtb: No effect
[22]
  Functional observational battery parameters: No change
[23]
  activity in model of chronic TB: better activity than EMB at 100 mg/kg
Candida spp.
  MIC: 1 to 8 µg/mL (≈ 3.03 to 24.2 µM)
[24]
  safety and tolerability: safe and well-tolerated
Clostridium difficile
  MIC: 8 to 16 µg/mL (≈ 24.2 to 48.4 µM)
[25]
  bioavailability of SQ109: 21.4%
[26]
  Segment 1: effects on male and female gamete maturation, copulatory performance, fertilization, zygote development and embryo implantation: No impact
  Segment 2: effects on pregnant female and development of embryo and fetus from implantation: No impact
Streptococcus pneumoniae
  MIC: 2 to 4 µg/mL (≈ 6.05 to 12.1 µM)
Neisseria gonorrhoeae
  MBC: 0.038 µg/mL (≈ 0.115 µM)
  MIC: 0.038 µg/mL (≈ 0.115 µM)
[27]
  improvement of SQ109 activity: fourfold
  in vitro interaction: synergistic; also recorded: additive
[28]; Mycobacterium tuberculosis, H37RV, read-out: MIC Alone
  MIC: 0.5 µg/mL
[28]; SQ109 with AMK, Unpublished Data
  in vitro interaction: synergy
[28]; SQ109 with CFZ, Reddy V, Unpublished Data
  in vitro interaction: synergy
[28]; SQ109 with CM, Unpublished Data
  in vitro interaction: synergy
[28]; SQ109 with CS, Unpublished Data
  in vitro interaction: additive
[28]; SQ109 with ETA, Unpublished Data
  in vitro interaction: additive
[28]; SQ109 with KAN, Unpublished Data
  in vitro interaction: additive
[28]; SQ109 with MXF, Unpublished Data
  in vitro interaction: synergy
[28]; SQ109 with all the rifamycins, including rifapentine and rifabutin
  in vitro interaction: profound synergy
[28]; SQ109 with para-aminosalicylic acid, Unpublished Data
  in vitro interaction: additive
[28]; checkerboard SQ109 + CFZ, Mtb H37Rv
  MIC Combination: 0.125 µg/mL
[29]; in the presence of CS and KAN
  exposure of mice to SQ109: slightly decreased
[29]; mice, SQ109 and MXF coadministered
  pharmacology profile on coadministration: not affected
Enterococci spp.
  MIC: 8 to 32 µg/mL (≈ 24.2 to 96.8 µM)
[30]; 12 h after dosing, expected from plasma concentration–time profile
  subjects with lung concentrations above the MIC for Mtb: approximately 50%
[30]; Phase Ic, 300 mg daily for 14 days
  serious adverse events: no SAEs
[30]; daily administration of 300 mg
  time to steady-state conditions: ≤ 10 days
[30]; steady state, once-daily 300 mg, from preclinical plasma/lung relationship
  lung concentration relative to SQ109 MIC: approximately 5.8 fold
[31]
  Functional observational battery parameters: No change
[32]; H. pylori
  bactericidal or bacteriostatic: bactericidal
  time–kill assays versus first-line drugs: better than amoxicillin and metronidazole
[32]; all H. pylori clinical isolates, manuscript in preparation
  MIC range: 2.5 to 15 µg/mL
